Entries after “also recorded” stand apart in the source; their conditions may differ. Where a SMILES comes first, the peptide text is derived from it. Bridges are numbered along the chain shown (N, C = ends).
How the values were obtained:
[1] = HS-AFM oligomerization on supported lipid bilayers doped with lipid II; conditions: DOPC/DOPG (1:1), 1% lipid II, 1 mM Ca^2+, up to 1 µM, n = 3
Description: HS-AFM imaging was performed on a supported lipid bilayer deposited on mica using an amplitude modulation tapping mode HS-AFM from RIBM (Ando type)[11]. The lipid compositions are as stated in the experimental conditions of the corresponding results. Short cantilevers (∼7 μm) with a nominal spring constant of 0.15 N m^−1 were used (USC-F1.2-k0.15, NanoWorld) for all experiments. A minimal imaging force was applied by using a small set-point amplitude, typically 80% of the free amplitude (for 1–2 nm of free amplitude). […] Imaging was started on the lipid bilayer surface in recording buffer. […] All reported experiments were repeated for at least three times for each condition. Image analysis was done using Igor Pro version 6.22 (Wavemetrics) with RIBM script and ImageJ version 1.501 with minimal image corrections (tilt, drift and background corrections). The time stamps on HS-AFM videos are relative to plectasin addition into the liquid chamber. Image acquisition rate varied from 0.5 frames per second to 2 frames per second (see the figure/video legends).

S. simulans 22 = test: MIC assays under standard conditions; type: cell-based, Staphylococcus simulans; conditions: Supplementary Table 1; cation-adjusted MHB, 37 °C, 16–20 h
Method in brief: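 Broth microdilution in cation-adjusted MHB, inoculum from OD600 0.5 TSB culture diluted 100-fold, 37 °C with shaking. Streptococci: 5% lysed horse blood, 5% CO2, MIC read visually at 20–24 h; S. simulans read at 16–20 h.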

[2] = Isothermal titration calorimetry with lipid II LUVs; type: binding; conditions: mutant vs plectasin
Description: About 200 nm large unilamellar vesicles (LUVs) were prepared from 2 mol% lipid II in DOPC by the extrusion technique. ITC measurements were conducted on a low-volume Affinity ITC (TA instruments). All measurements were conducted at 37 °C. Samples were degassed for 10 min before the ITC experiments. The cell was filled with plectasin (in 50 mM HEPES, 150 mM NaCl at pH = 7.2) and titrated with LUVs in the same buffer under constant stirring at 125 r.p.m. The data were analysed using the Nano Analyze software version 3.11.0 (TA Instruments). After baseline correction, the integrated peaks were fitted using an independent binding model. Each measurement was acquired in duplicate.

Compound | oligomerization in HS-AFM (in words) [1] | Minimum inhibitory concentration, S. simulans (S. simulans 22) [µg/mL] | loss in lipid II binding affinity (ITC) [2] [fold]
CC[C@H](C)[C@@H]1NC(=O)[C@H](CO)NC(=O)[C@H](CCCCN)NC(=O)[C@@H]2CSSC[C@@H](C(=O)N[C@@H](Cc3ccc(O)cc3)C(=O)O)NC(=O)[C@H](CCCCN)NC(=O)[C@@H]3CSSC[C@H](NC(=O)[C@H](CCC(N)=O)NC(=O)[C@H](CCSC)NC(=O)[C@H](CC(=O)O)NC(=O)[C@H](CC(=O)O)NC(=O)[C@H](CCC(=O)O)NC(=O)[C@H](CC(=O)O)NC(=O)[C@H](Cc4c[nH]c5ccccc45)NC(=O)[C@@H]4CCCN4C(=O)CNC(=O)[C@H](CC(N)=O)NC(=O)[C@@H](NC(=O)CNC(=O)[C@H](Cc4ccccc4)NC(=O)CN)CSSC[C@H](NC(=O)[C@H](Cc4ccc(O)cc4)NC(=O)CNC(=O)CNC(=O)[C@H](CCCCN)NC(=O)[C@H](Cc4ccc(O)cc4)NC(=O)CNC(=O)[C@H](CCCCN)NC1=O)C(=O)N[C@@H](C)C(=O)N[C@@H](CCCCN)C(=O)NCC(=O)NCC(=O)N[C@@H](Cc1ccccc1)C(=O)N[C@@H](C(C)C)C(=O)N3)C(=O)N[C@@H](C)C(=O)N[C@@H](CC(N)=O)C(=O)N[C@@H](Cc1c[nH]cn1)C(=O)N2 [H16A] (H-GFGCNGPWDEDDMQCANHCKSIKGYKGGYCAKGGFVCKCY-OH; disulfide 4-30, 15-37, 19-39 (inferred); N-terminus and C-terminus assumed) | oligomerization was not observed; also recorded: No plectasin oligomerization is observed | > 50 | > 10
CC[C@H](C)[C@@H]1NC(=O)[C@H](CO)NC(=O)[C@H](CCCCN)NC(=O)[C@@H]2CSSC[C@@H](C(=O)N[C@@H](Cc3ccc(O)cc3)C(=O)O)NC(=O)[C@H](CCCCN)NC(=O)[C@@H]3CSSC[C@H](NC(=O)[C@H](CCC(N)=O)NC(=O)[C@H](CCSC)NC(=O)[C@H](CC(=O)O)NC(=O)[C@H](CC(=O)O)NC(=O)[C@H](CCC(=O)O)NC(=O)[C@H](CC(=O)O)NC(=O)[C@H](Cc4c[nH]c5ccccc45)NC(=O)[C@@H]4CCCN4C(=O)CNC(=O)[C@H](CC(N)=O)NC(=O)[C@@H](NC(=O)CNC(=O)[C@H](Cc4ccccc4)NC(=O)CN)CSSC[C@H](NC(=O)[C@H](Cc4ccc(O)cc4)NC(=O)CNC(=O)CNC(=O)[C@H](CCCCN)NC(=O)[C@H](Cc4ccc(O)cc4)NC(=O)CNC(=O)[C@H](CCCCN)NC1=O)C(=O)N[C@@H](C)C(=O)N[C@@H](CCCCN)C(=O)NCC(=O)NCC(=O)N[C@@H](Cc1ccccc1)C(=O)N[C@@H](C(C)C)C(=O)N3)C(=O)N[C@@H](Cc1c[nH]cn1)C(=O)N[C@@H](CC(N)=O)C(=O)N[C@@H](C)C(=O)N2 [H18A] (H-GFGCNGPWDEDDMQCHNACKSIKGYKGGYCAKGGFVCKCY-OH; disulfide 4-30, 15-37, 19-39 (inferred); N-terminus and C-terminus assumed) |  | > 50 | > 10

Reference: PMC11222147, “Host defence peptide plectasin targets bacterial cell wall precursor lipid II by a calcium-sensitive supramolecular mechanism” (Nature Microbiology, 2024)
